The test system of one assay is salivary TNFα. As to the kind of experiment: Salivary TNFα levels (ELISA) and cachexia symptoms in cachexic cancer patients under oral treatment. It counts as in vivo, human. An excerpt:
Endogenous TNFα production can be measured by ELISA. The data reported herein used the Peprotech human TNFα kit (catalog 900-T25) following directions of the manufacturer. Alternative ELISA methods, not relying on commercial manufacturers, could be employed. […] This standard curve was used to calculate TNFα production in various organs and in saliva as presented herein.
The stabilization step may involve known methods for stabilizing TNFα, such as those described by Lee et al. (2017), incorporated herein by reference.
The detection step is designed to treat the stabilized saliva sample with an TNFα antibody in such a way as to bind essentially all of the TNFα present in the sample. The detection step may involve an immunoassay, such as an ELISA test based on an antigen-antibody reaction using TNFα as the antigen to be measured. For example, the capture antibody may be a polyclonal antibody specific for TNFα. […] In some embodiments the second TNFα antibody may be a monoclonal antibody, such as a mouse monoclonal antibody. Biotin may then be bound to the monoclonal antibody or to a third IgG antibody to which biotin is bound. The biotin levels are detected by first treating with a streptavidin solution linked with horse radish peroxidase (HRP) followed by treatment with a tetramethylbenzidine solution to detect the HRP by reading the resulting color in a spectrophotometer. An ELISA standard concentration graph of target TNFα may be obtained, for example, by absorbance detection, fluorescence detection, luminescence detection, or electrochemical detection. […] Alternatively, the immunoassay may be performed by a method capable of directly or indirectly detecting TNFα. Examples of such alternative methods include MS (Mass Spectrometry), MS/MS, and liquid chromatography.
The invention can be further understood by reference to the following examples, which are provided by way of illustration and are not meant to be limiting. The examples are of human cancer cases that had become cachexic. The patients had salivary TNFα levels ranging from 405 to 462 pg/ml. The TNFα in these cases was restored to normal levels by treatment with DAS (4,4′-diacetoxy-1,1 biphenyl-3,3′ dicarboxylic acid) or APAC for 10-21 days. […] They also support the fact that complement is required for TNFα production.
In general terms: ELISA stands for enzyme-linked immunosorbent assay.

The target in assay [1] is TNFα (Homo sapiens, UniProt P01375). As to the kind of experiment: Binding of APAC and DAS to TNFα / TNFα peptide. Conditions: 0-5 nmol/ml of DAS and 0-175 nmol/ml of TNFα peptide, FIG. 10. Here is the method:
(§1) A 12-mer peptide spot array was synthesized on a cellulose membrane using a Semi-automated AutoSpot robot (INTAVIS, USA) covering the 233 amino acid sequence of TNFα. A total of 112 peptides, each shifted by 2 amino acids were synthesized. The TNFα membrane was soaked in 50% methanol in 10 mM PBS (pH7.4) for 2 minutes, then washed twice with PBS. The membrane was then incubated with 1 mM of APAC or DAS in PBS (10 mM, pH7.4) for one hour at 37° C. After washing 3 times with PBS, positive images were captured with a SYPRO Ruby filter for APAC and an Alexa 680 filter for DAS by the Chemidoc MP imaging System (Bio-Rad, USA).
(§2) A strongly positive peptide sequence was chosen for synthesis of a potential inhibitor of TNFα binding. The sequence of this TNFα-A2 peptide was NH3-YLGGVFQLEKGDRLSA-COOH. It was synthesized using a standard peptide Synthesizer (Liberty Blue, CEM Inc, USA) with Wang Resin and Fmoc amino acids (GL Biochem Ltd, Shanghai, CN). After synthesis, the peptide was purified by HPLC on a C18 column (Quadarupole 6110 LC/MS, Agilent Technology, USA) with a flow phase of 0.5% trifluroacetic acid (TFA) in acetonitrile to 0.05% TFA in H2O. The eluted peptide was detected by ultraviolet light (280 nm). The peptide inhibited binding of APAC to TNFα (FIG. 9) and of DAS to TNFα (FIG. 10).

In assay [2] the test system is TNFα. As to the kind of experiment: Binding of APAC and DAS to TNFα / TNFα peptide. The protocol:
as §1, §2

On to `NC(=O)NO` [hydroxyurea, reference compound], for which the “salivary TNFα level” value in the assay on salivary TNFα (Example 1, terminal leukemia patient, ten days after APAC discontinued (155 pg/ml on Day 20) and hydroxyurea 500 mg×2/day begun) stood at 228 pg/mL.

On to `CC(=O)Oc1ccc(-c2ccc(OC(C)=O)c(C(=O)O)c2)cc1C(=O)O` [DAS, 4,4′-diacetoxy-1,1 biphenyl-3,3′ dicarboxylic acid], for which the “binding of DAS to a TNFα peptide as a function of the peptide concentration” value on TNFα [1] is “linear”. Also, the symptoms of cachexia result in the assay on salivary TNFα (Example 4, peritoneal carcinomatosis patient, DAS 3×100 mg/day, Day 12) was “subsided”. The “salivary TNFα level” value with salivary TNFα (Example 4, peritoneal carcinomatosis patient, DAS 3×100 mg/day, nine days into treatment (Day 12)) worked out at 161 pg/mL; in the assay with salivary TNFα (Example 4, person, stage IV peritoneal carcinomatosis and cachexia, 394 pg/ml Day 0, 406 pg/ml before start, DAS 3×100 mg/day, five days into treatment (Day 8)) it was 288 pg/mL. Moreover, in the assay on salivary TNFα (oral intake), the “increased salivary TNFα levels of cachexic cancer patients” value is reported as “rapidly reduced to normal levels”. The “elevated salivary TNFα over time” value with salivary TNFα (patient with terminal colon cancer, FIG. 14) is given as “reversed”.

“TNFα-A2 peptide: synthesized TNFα sequence peptide NH3-YLGGVFQLEKGDRLSA-COOH (H-YLGGVFQLEKGDRLSA-OH)”: in the assay on TNFα [2] (FIG. 9), the “binding of APAC to TNFα in presence of the peptide” value is on record as “inhibited”. For the same molecule, the “binding of DAS to TNFα in presence of the peptide” value in the assay with TNFα [2] (FIG. 10) is “inhibited”.

Source of the values: US20200121697A1, “METHODS FOR DIAGNOSING AND TREATING CACHEXIA” (Aurin Biotech Inc., priority 2017, published 2020).
